Where two headings read alike, the source gives them in different places.

The text below walks through data of publication PMC12266748, “A Xanthine Derivative With Novel Heat Shock Protein 90‐Alpha Inhibitory and Senolytic Properties” (Aging Cell, 2025).

The test system of data set [1] is WI38 cells. Nature of the data set: Dose-response curves on proliferating and replicative senescent WI38 (Trypan blue cell count). To be noted: for EC50: Homo sapiens, WI-38. The class given is cell-based. The text has this: (§1) IMR90 and WI38 lung fibroblasts were purchased from ECACC‐Merck. Human bone marrow (BM)‐derived mesenchymal stromal cells (MSCs) were purchased from Lonza. Human umbilical vein endothelial cells (HUVECs) are primary cells obtained from a pool of donors purchased from Clonetics (Lonza). Murine ear fibroblasts (MearFs) were obtained from C57BL/6J mice maintained in the INRCA “Specific Pathogen Free” (SPF) animal facility. MCF7 breast cancer cells were purchased from ATCC. For dose–response curves, IMR90 and WI38 were induced to senescence through replicative passages; MSCs, HUVECs, and MearFs senescence was induced with Doxorubicin; MCF7 senescence was induced with 4‐Hydroxytamoxifen (Lee et al. [2014]). The EC50 was calculated using GraphPad Prism 10 software. All treatment specifications are reported in the extended section.
(§2) Cell culture and treatment. IMR90 cells (Homo sapiens, fetal lung, fibroblast) and WI38 cells (Homo sapiens, fetal lung, fibroblast) were purchased from ECACC-Merck (Merck, Darmstadt, Germany) and cultured in MEM medium (Euroclone, Milano, Italy) supplemented with 1% L-Glutamine (Euroclone, Milano, Italy), 1% Penicillin-Streptomycin (Euroclone, Milano, Italy), and 10% Fetal Bovine Serum (FBS, Euroclone, Milano, Italy), at 37°C, 5% CO2. IMR90 cells with a population doubling (PD) from PD15 to PD23 were used; cells were considered incrementally senescent from passage PD19 to passage PD23. WI38 cells were used from PD26 to PD53. Cells were considered incrementally senescent from passage PD49 to passage PD53. For the compounds in vitro screening, IMR90 cells with passages from PD15 to PD23 were tested at increasing concentrations of 0.5 μM, 1 μM, 10 μM, and 25 μM over 24 and 48 h to evaluate the compounds' efficacy and cytotoxicity compared to the Vehicle (DMSO ≤ 0.1%). Cells were counted manually, in triplicate, using Trypan blue reagent (Euroclone) and disposable Bürker chambers. […] K5 dose-response proliferation curves were performed with compound K5 (Molport, SIA, Riga, Latvia) in concentrations 0.1, 0.5, 1, 5, 10, 50, 100, and 200 μM for 48 h. Cells were counted using a Trypan blue reagent and EVAplus cell counter. The EC50s were calculated by analyzing the data using GraphPad Prism 10 software.
(§3) MCF7 cell line (ATCC; HTB-22, Homo sapiens, breast cancer) was purchased from ATCC; cells were grown in MEM medium (Corning, New York, USA, #15-010-CVR) supplemented with 10% FBS (Gibco, Invitrogen, Carlsbad, CA, USA, #10270106), 1% glutamine (Corning #25005-CI), 1% penicillin and streptomycin (Corning #30002-CI). Cells were incubated at 37 °C with 5% CO2. Senescent status induction: MCF7 were plated 24 h before the treatment with 4-Hydroxytamoxifen (TAM) 10 μM to induce the senescence described by (Lee et al. 2014). Control cultures were treated with equal volumes of 75% ethanol as the vehicle. The treatment with TAM lasts 96 h, after which the cells have been washed and treated with the senolytic drugs K5 10 µM for another 96 h. The treatment with the senolytic compounds has been renewed at 48 h. Cell mortality and vitality curves after treatment with K5 (10 μM, orange) or Vehicle (DMSO, grey) were monitored using the Incucyte live-cell Analysis system (Sartorius, Goettingen, Germany). The estimated Senolytic index (SI) was calculated as the ratio between the EC50 in proliferating cells and the EC50 in senescent cells, extrapolated using GraphPad Prism 10 software.

In data set [2] the test system is MCF7 cells. Nature of the data set: Annexin V staining of senescent MCF7 (Incucyte). The class given is cell-based, Homo sapiens. The following applies: Tamoxifen-induced senescent MCF7, K5 10 μM, after 24 h, over 96 h. As to the method:
Senescent MCF7 cells were treated with K5 and Incucyte Annexin V NIR Dye (Sartorius). Cells were monitored using the Incucyte live‐cell Analysis system (Sartorius). Images were acquired using the phase microscopy EVOS XL Core at 10× magnification and analyzed using the ImageJ software.
Annexin V staining. MCF7 were plated 24 h before the treatment with 4-Hydroxytamoxifen (TAM) 10 μM for 96 h to induce the senescence described by (Lee et al. 2014). Control cultures were treated with equal volumes of 75% ethanol as the vehicle. Then, cells were washed and treated with the senolytic drug K5 10 µM and DMSO as solvent control for another 96 h and with the Incucyte Annexin V NIR Dye (1:200, Sartorius). Cells were monitored using the Incucyte live-cell Analysis system (Sartorius). The images were acquired using the phase microscopy EVOS XL Core at 10X magnification and analyzed using the ImageJ software. The mean signal intensity was then normalized for the total number of cells.

Data set [3] has as its system Drosophila melanogaster. The data set can be described thus: Drosophila melanogaster gene expression analysis (qRT-PCR). It is filed as in vivo. The following applies: K5 10 μg/mL. The protocol: Total RNA from Drosophila melanogaster was isolated using a TripleXtractor reagent kit (Grisp Research Solution, Porto, Portugal). Gene expression of Dacapo (Dap), Unpaired 2 (Upd2), Unpaired 3 (Upd3), and Glyceraldehyde‐3‐phosphate dehydrogenase 1 (Gapdh1) was analyzed by qRT‐PCR. Details are reported in the extended methods.

Data set [4] deals with IMR90 cells. Nature of the data set: Dose-response curves on proliferating and replicative senescent IMR90 (Trypan blue cell count). It is filed as cell-based. The following applies: for EC50: Homo sapiens, IMR-90.
Source text: as §1, §2, §3

The test system of data set [5] is MCF7 cells. Nature of the data set: Immunofluorescence of Cytochrome C / mitochondria colocalization in senescent MCF7. The class given is cell-based, Homo sapiens. To be noted: MCF7, TAM 10 µM 96 h, then 72 h K5 10 µM or Dasatinib 1 µM. The protocol:
Treated/untreated senescent IMR90 and MCF7 cells were fixed, permeabilized, and stained following suppliers' recommendations. Images were acquired using an Olympus IX83 research inverted microscope (IF) and a phase microscopy Nikon ECLIPSE Ei R (IHC) at 40× MAG.
Immunofluorescence staining. Treated/untreated IMR90 and MCF7 cells were cultured in LabTek II chamber slides (Nunc, Biosigma). At the final time point, cells were stained with 500 nM MitoTracker Orange (Thermo Fisher Scientific) for 30 min at 37°C and then fixed in 4% PFA (Merck) for 10 min, RT, and permeabilized with 0.1% Triton solution (Merck) for 30 min at RT. Samples were blocked in 5% BSA for 90 min, incubated overnight at 4°C with primary antibody against Cytochrome C (1:50, RbMAb, Abcam), and 1h at RT with secondary antibody Alexa Fluor 488 goat anti-Rb (1:200, Thermo Fisher Scientific). Nuclei were stained with DAPI (Cell Signaling) for 10 min at RT, and ProLong Glass Antifade Mountant (Thermo Fisher Scientific) was used to seal coverslips. Images were acquired using an Olympus IX83 research inverted microscope at 40X magnifications.

As for `Cc1ccccc1-n1c(=O)n(Cc2ccccc2)c(=O)c2[nH]cnc21` [Compound K5, 1-benzyl-3-(2-methylphenyl)-7H-purine-2,6-dione], the concentration for a half-maximal effect (EC50) in data set [1] (WI38, Replicative/passages, read-out: EC50 senescent cells) is 650 nM; in data set [1] (WI38, read-out: EC50 proliferating cells), greater than 500000 nM; in data set [4] (IMR90, Replicative/passages, read-out: EC50 senescent cells), 380 nM; in data set [4] (IMR90, read-out: EC50 proliferating cells), greater than 500000 nM. Moreover, the “Senolytic evidence (no, partly/yes)” value was “Yes” in data set [1] (WI38, Replicative/passages) and “Yes” in data set [4] (IMR90, Replicative/passages). Besides, the “Senolytic index (estimated)” value in data set [1] (WI38, SI = EC50 in proliferating cells/EC50 senescent cells) is recorded as greater than 770; in data set [4] (IMR90, SI = EC50 in proliferating cells/EC50 senescent cells), greater than 1320. Further, the “toxicity in proliferating cells” value is recorded as “no evident toxicity” in data set [1] (proliferating WI38 (PD29), 100 nM to 200 μM, 48 h) and “no evident toxicity” in data set [4] (proliferating IMR90 (PD15), 100 nM to 200 μM, 48 h). Also, the “Annexin V signal” value in data set [2] was “significant and stable increase”. The “Dap relative expression vs controls” value in data set [3] is given as “no significant difference”. For the same compound, in data set [3] (p < 0.05), the “Upd2 relative expression vs controls” value was “significantly reduced”. Moreover, the “Upd3 relative expression vs controls” value in data set [3] (p < 0.05) is given as “significantly reduced”. The “Cytochrome C / mitochondria colocalization, Overlap R (OR)” value in data set [5] (TAM + Vehicle OR = 0.978) worked out at 0.896. Also, the “Cytochrome C / mitochondria colocalization, Pearson's Rr (PRr)” value in data set [5] (TAM + Vehicle PRr = 0.961) is listed as 0.810.
